Measurements published in patent US20220153718A1, “SYNTHESIS OF STABLE AMORPHOUS APALUTAMIDE” (OLON S.P.A., priority 2019, published 2022).

Test: Solid-form stability under forced-air drying (XRPD)
Assay type: physicochemical
Settings: drying at 90° C. for over 100 hours, under vacuum, in a stove
Description: Forced-air drying here means drying at 90° C. for over 100 hours, under vacuum, in a stove.

SMILES	Stability of the amorphous form after forced-air drying
CNC(=O)c1ccc(N2C(=S)N(c3cnc(C#N)c(C(F)(F)F)c3)C(=O)C23CCC3)cc1F [amorphous form obtained by evaporation of the solvent after ] [4-{7-[6-cyano-5-(trifluoromethyl)pyridin-3-yl]-8-oxo-6-sulphanylidene-5,7-diazaspiro[3,4]octan-5-yl}-2-fluoro-N-methylbenzamide]	converted to a mixture of amorphous form, form A and form B
CNC(=O)c1ccc(N2C(=S)N(c3cnc(C#N)c(C(F)(F)F)c3)C(=O)C23CCC3)cc1F [stable amorphous form of apalutamide, 4-{7-[6-cyano-5-(trifluoromethyl)pyridin-3-yl]-8-oxo-6-sulphanylidene-5,7-diazaspiro[3,4]octan-5-yl}-2-fluoro-N-methylbenzamide]	stable
